Measured values from patent publication US20090221590A1, “SALT OF CD 80 ANTAGONIST” (MEDIGENE LIMITED, priority 2006, published 2009).
In brackets after ≈: the same amount, converted by molar mass.

Assay: Solubility Assay (saturation, shaker 24 hours, supernatant analysed by HPLC)
Details: for Solubility (mg/ml) in ethanol: solvent ethanol; for Solubility (mg/ml) in ethanol / Solubility (mg/ml) in water: 25 deg C./60% relative humidity, 24 hours; for Solubility (mg/ml) in water: solvent water; for solubility at 24 h: 25 °C, thermodynamic from solid
Protocol: 10 mg of the test compound was weighed into a vial, and 1 ml of solvent was added. If the sample dissolved immediately, as evidenced by a formation of a clear solution, more of the test material was added and the vial sonicated for 15 mins. This procedure was repeated until no more test compound could be dissolved, as evidenced by formation of a suspension. The vial containing the suspension was then was sonicated for 15 mins, and placed on a shaker at 25 deg C./60% relative humidity for 24 hours. On removal from the shaker, the sample was centrifuged and the supernatant analysed by HPLC.

Compound: [Mg] [Magnesium]
- Solubility (mg/ml) in ethanol: <5 mg/mL
- Solubility (mg/ml) in water: <5 mg/mL

Compound: O=C(NCC(F)F)c1ccc(-n2[nH]c3c(nnc4c(F)cccc43)c2=O)cc1 [None (free acid), 4-(6-fluoro-3-oxo-1,3-dihydro-pyrazolo[4,3-c]cinnolin-2-yl)-N-(2,2-difluoro-ethyl)-benzamide]
- solubility at 24 h (ethanol, organic solvent or mixture): 2100 µg/mL (≈ 5.42 mM)
- solubility at 24 h (water): < 500 µg/mL
- aqueous solubility (in words) (water, qualitative statement): poorly soluble in water

Compound: [K+] [Potassium]
- Solubility (mg/ml) in ethanol: <5 mg/mL
- Solubility (mg/ml) in water: <5 mg/mL

Compound: Sodium
- Solubility (mg/ml) in ethanol: 7.1 mg/mL
- Solubility (mg/ml) in water: <5 mg/mL
